# Results from ChEMBL document CHEMBL1130960, “QSAR study of the peptidic fibrinogen inhibitors FK633, FR158999 and related derivatives, using a novel and useful hydrophobic descriptor (logPmw)” (Bioorg Med Chem Lett, 1998).
# Test: Inhibition of binding to fibrinogen receptor
row,SMILES,Log IC50
1,CCN(CC)C(=O)[C@@H](NC(=O)[C@H](CC(=O)O)NC(=O)CCCOc1ccc(C(=N)N)cc1)C(C)C,-6.6
2,CC(C)[C@H](NC(=O)[C@H](CC(=O)O)NC(=O)CCCOc1ccc(C(=N)N)cc1)C(=O)N1CCOCC1,-7.1
3,CC[C@H](C)[C@H](NC(=O)[C@H](CC(=O)O)NC(=O)CCCOc1ccc(C(=N)N)cc1)C(=O)O,-6.85
4,CC(C)C(C)NC(=O)C(CC(=O)O)NC(=O)CCCOc1ccc(C(=N)N)cc1 (stereo unspecified),-5.9
5,N=C(N)c1ccc(OCCCC(=O)NC(CC(=O)O)C(=O)NC(Cc2ccc(O)cc2)C(=O)O)cc1 (stereo unspecified),-6.8
6,CC(C)[C@H](NC(=O)[C@H](CC(=O)O)NC(=O)CCCOc1ccc(C(=N)N)cc1)C(=O)NC1CCCCC1,-6.7
7,CC(C)(C)CC(NC(=O)C(CC(=O)O)NC(=O)CCCOc1ccc(C(=N)N)cc1)C(=O)O (stereo unspecified),-6.64
8,Cc1ccc(OCCNC(=O)C(CC(=O)O)NC(=O)CCCOc2ccc(C(=N)N)cc2)cc1C (stereo unspecified),-6.3
9,CC(C)C(NC(=O)C(CC(=O)O)NC(=O)CCCOc1ccc(C(=N)N)cc1)C(=O)O (stereo unspecified),-6.96
10,N=C(N)c1ccc(OCCCCC(=O)NC(CC(=O)O)C(=O)NC(Cc2ccc(O)cc2)C(=O)O)cc1 (stereo unspecified),-6.19
11,COC(=O)C(Cc1ccc(O)cc1)NC(=O)C(CC(=O)O)NC(=O)CCCCOc1ccc(C(=N)N)cc1 (stereo unspecified),-5.35
12,CC(C)C(NC(=O)C(CC(=O)O)NC(=O)CCCCOc1ccc(C(=N)N)cc1)C(=O)O (stereo unspecified),-6.64
13,COc1ccc(CC(NC(=O)C(CC(=O)O)NC(=O)CCCCOc2ccc(C(=N)N)cc2)C(=O)O)cc1 (stereo unspecified),-6.57
14,CC(C)[C@H](NC(=O)[C@H](CC(=O)O)NC(=O)CCCOc1ccc(C(=N)N)cc1)C(=O)N1CCS(=O)(=O)CC1,-7.5
15,N=C(N)c1ccc(OCCCCC(=O)NC(CC(=O)O)C(=O)NC(CO)C(=O)O)cc1 (stereo unspecified),-4.92
16,CC(C)[C@H](NC(=O)[C@H](CC(=O)O)NC(=O)CCCOc1ccc(C(=N)N)cc1)C(N)=O,-6.2
17,CC(C)CC(NC(=O)C(CC(=O)O)NC(=O)CCCOc1ccc(C(=N)N)cc1)C(=O)O (stereo unspecified),-6.87
18,CC(C)c1ccc(OCCNC(=O)C(CC(=O)O)NC(=O)CCCOc2ccc(C(=N)N)cc2)cc1 (stereo unspecified),-6.4
19,COc1ccc(CC(NC(=O)C(CC(=O)O)NC(=O)CCCOc2ccc(C(=N)N)cc2)C(=O)O)cc1 (stereo unspecified),-6.89
20,CCCCC(NC(=O)C(CC(=O)O)NC(=O)CCCOc1ccc(C(=N)N)cc1)C(=O)O (stereo unspecified),-7.12
21,CCc1ccc(OCCNC(=O)C(CC(=O)O)NC(=O)CCCOc2ccc(C(=N)N)cc2)cc1 (stereo unspecified),-6.5
